Experimental data published in US11306124B2, “Agonist agents of CD47 inducing programmed cell death and their use in the treatments of diseases associated with defects in programmed cell death” (SORBONNE UNIVERSITE, priority 2016, dated 2022).
Where two headings read alike, the source gives them in different places. Residues, ends and D or L forms follow the SMILES beside them.

Legend:
[1] = system: MCF-7, HCT-116, BxPC3 and A549 cancer cells; assay: Cell viability and proliferation of tumor cells (cytotoxic assay and direct cell counting); type: cell-based, human; conditions: for efficiency in inducing cell death on cancer cell lines: MCF-7, HCT-116, BxPC3, A549; for viability in all cell strains: 2 hours, 10 to 50 μM peptide concentration
Description: The effects of several cyclic peptides of the invention on the proliferation of tumor cells were evaluated on 5 cell lines (MCF-7, human breast cancer cells; HCT-116, human colon cancer cells; BxPC3, human pancreas cancer cells and A549, human lung cancer cells) by cytotoxic assay and by counting directly the number of cells.
Those cyclic peptides were dissolved in DMSO at the following concentrations: 0, 5, 10, 25, 50 and 100 μM.
Culture media used for these assays are: EMEM=10% SVF for MCF-7 and Wi38; RPMI […] SVF for HCT-116 and BxPC3 and F-12K=10% SVF for A549.
500 cells were seeded in 96-well plates, incubated at 37° C. for 24 hours, and treated by the cyclic peptides at the different concentrations and controls for 2 h.

HCT-116 cells = type: cell-based, human; conditions: for Early Apoptosis, Mean (%) / Late apoptosis, Mean (%): HCT-116 cells; for Early Apoptosis, Mean (%) / Late apoptosis, Mean (%) / Viable, Mean (%): 2 h; for Viable, Mean (%): human
Description: 2.2.2. Cell Death Analysis by Flow Cytometry
To detect possible apoptotic processes, cells were seeded in 35 mm dishes and cultured in media containing each tested cyclic peptide for 2 hours following procedure A or B.
Procedure B: Peptides were incubated for 2 hours on HCT-116 cells. Superkiller Trail (ALX-201-115C-010) was used as a positive pro-apoptotic control. Cells were analyzed by cytofluorometry using FITC Annexin V apoptosis detection kit with 7-AAD from BIOLEGEND (BLE640922).

[2] = peptide concentration 12.5 (μM)

Compound	efficiency in inducing cell death on cancer cell lines [1]	Early Apoptosis, Mean (%) (HCT-116 cells; [2])	Late apoptosis, Mean (%) (HCT-116 cells; [2])	Early Apoptosis, Mean (%) (HCT-116 cells; peptide concentration 25 (μM))	Late apoptosis, Mean (%) (HCT-116 cells; peptide concentration 25 (μM))	Early Apoptosis, Mean (%) (HCT-116 cells; peptide concentration 50 (μM))	Late apoptosis, Mean (%) (HCT-116 cells; peptide concentration 50 (μM))	efficacy in triggering PCD (HCT-116 cells; from 12.5 to 50 μM)	Viable, Mean (%) (HCT-116 cells; 12.5 μM)	Viable, Mean (%) (HCT-116 cells; 25 μM)	Viable, Mean (%) (HCT-116 cells; 50 μM)	viability in all cell strains [1]
CSCC[C@@H]1NC(=O)[C@H](C(C)C)NC(=O)[C@H](C(C)C)NC(=O)[C@H](Cc2ccc(O)cc2)NC(=O)[C@H](Cc2ccccc2)NC(=O)[C@H](CCCNC(=N)N)NC(=O)[C@H](CCCCN)NC(=O)[C@H](Cc2c[nH]c3ccccc23)NC1=O [PKC1, reference compound]	no potency in inducing cell death	4.54%	2.25%	4.55%	2.56%	4.98%	2.75%	no efficacy	92.95%	92.72%	92.15%	–
CC[C@H](C)[C@@H]1NC(=O)CNC(=O)[C@@H]2CCCN2C(=O)[C@H]2CCCN2C(=O)[C@H](CCCCN)NC(=O)[C@H](Cc2c[nH]c3ccccc23)NC(=O)[C@H](CCSC)NC(=O)[C@H](C(C)C)NC(=O)[C@H](C(C)C)NC(=O)[C@H](Cc2ccc(O)cc2)NC(=O)[C@H](Cc2ccccc2)NC(=O)[C@H](CCCNC(=N)N)NC(=O)[C@H](CO)NC(=O)[C@H](CO)NC(=O)[C@H](CCCCN)NC(=O)[C@H](C(C)C)NC(=O)[C@H](C(C)C)NC(=O)[C@H](CCCCN)NC(=O)[C@H](C(C)C)NC(=O)[C@H](CO)NC1=O [PKTD1, —S—R—F—Y—V—V—M—W—K—p—P—G—I—S—V—K—V—V—K—S—] (HELM PEPTIDE1{G.I.S.V.K.V.V.K.S.S.R.F.Y.V.V.M.W.K.[dP].P}$PEPTIDE1,PEPTIDE1,1:R1-20:R2$$$V2.0)	–	–	–	–	–	–	–	–	76.44%	63.51%	37.56%	–
CC[C@@H](C)[C@@H]1NC(=O)CNC(=O)[C@@H]2CCCN2C(=O)[C@H]2CCCN2C(=O)[C@H](CCCCN)NC(=O)[C@H](Cc2c[nH]c3ccccc23)NC(=O)[C@H](CCSC)NC(=O)[C@@H](C(C)C)NC(=O)[C@H](C(C)C)NC(=O)[C@H](Cc2ccc(O)cc2)NC(=O)[C@H](Cc2ccccc2)NC(=O)[C@H](CCCNC(=N)N)NC(=O)C(CC(N)=O)NC(=O)[C@H](C(C)C)NC(=O)[C@H](C(C)C)NC(=O)[C@H](CCCCN)NC(=O)[C@H](C(C)C)NC(=O)[C@H](CO)NC1=O (stereo partly shown) [PKTD7, —R—F—Y—V—V—M—W—K—p—P—G—I—S—V—K—V—V—N—] (HELM PEPTIDE1{G.[CC[C@@H](C)[C@H](N[*:1])C(=O)[*:2]].S.V.K.V.V.[NC(=O)CC(N[*:1])C(=O)[*:2]].R.F.Y.V.[dV].M.W.K.[dP].P}$PEPTIDE1,PEPTIDE1,1:R1-18:R2$$$V2.0)	efficient in inducing cell death	–	–	–	–	–	–	–	–	–	–	dose-dependent viability decrease
CSCC[C@@H]1NC(=O)[C@H](C(C)C)NC(=O)[C@H](C(C)C)NC(=O)[C@H](Cc2ccc(O)cc2)NC(=O)[C@H](Cc2ccccc2)NC(=O)[C@H](CCCNC(=N)N)NC(=O)[C@H](CO)NC(=O)[C@H](CO)NC(=O)[C@H](CC(N)=O)NC(=O)[C@H](C(C)C)NC(=O)[C@H](C(C)C)NC(=O)[C@H](CCCCN)NC(=O)[C@H](C(C)C)NC(=O)[C@H](C)NC(=O)[C@H](CC(C)C)NC(=O)CNC(=O)[C@@H]2CCCN2C(=O)[C@H]2CCCN2C(=O)[C@H](CCCCN)NC(=O)[C@H](Cc2c[nH]c3ccccc23)NC1=O [PKTD10-3, —S—R—F—Y—V—V—M—W—K—p—P—G—L—A—V—K—V—V—N—S—] (HELM PEPTIDE1{S.R.F.Y.V.V.M.W.K.[dP].P.G.L.A.V.K.V.V.N.S}$PEPTIDE1,PEPTIDE1,1:R1-20:R2$$$V2.0)	–	8.17%	4.35%	13.16%	7.06%	13.13%	6.85%	–	86.83%	79.30%	79.67%	dose-dependent viability decrease
CSCC[C@@H]1NC(=O)[C@H](C(C)C)NC(=O)[C@H](C(C)C)NC(=O)[C@H](Cc2ccc(O)cc2)NC(=O)[C@H](Cc2ccccc2)NC(=O)[C@H](CCCNC(=N)N)NC(=O)[C@H](CO)NC(=O)[C@H](CO)NC(=O)[C@H](CC(N)=O)NC(=O)[C@H](C(C)C)NC(=O)[C@H](C(C)C)NC(=O)[C@H](CCCCN)NC(=O)[C@H](C)NC(=O)[C@H](CO)NC(=O)[C@H](CC(C)C)NC(=O)CNC(=O)[C@@H]2CCCN2C(=O)[C@H]2CCCN2C(=O)[C@H](CCCCN)NC(=O)[C@H](Cc2c[nH]c3ccccc23)NC1=O [PKTD10-4, —S—R—F—Y—V—V—M—W—K—p—P—G—L—S—A—K—V—V—N—S—] (HELM PEPTIDE1{S.R.F.Y.V.V.M.W.K.[dP].P.G.L.S.A.K.V.V.N.S}$PEPTIDE1,PEPTIDE1,1:R1-20:R2$$$V2.0)	–	9.27%	4.39%	11.91%	5.54%	15.68%	7.53%	–	85.90%	82.41%	76.52%	dose-dependent viability decrease
CSCC[C@@H]1NC(=O)[C@H](C(C)C)NC(=O)[C@H](C(C)C)NC(=O)[C@H](Cc2ccc(O)cc2)NC(=O)[C@H](Cc2ccccc2)NC(=O)[C@H](CCCNC(=N)N)NC(=O)[C@H](CC(N)=O)NC(=O)[C@H](C(C)C)NC(=O)[C@H](C(C)C)NC(=O)[C@H](CCCCN)NC(=O)[C@H](C(C)C)NC(=O)[C@H](CO)NC(=O)[C@H](CC(C)C)NC(=O)CNC(=O)[C@H](CO)NC(=O)[C@@H]2CCCN2C(=O)[C@H]2CCCN2C(=O)[C@H](CCC(N)=O)NC(=O)[C@H](CCCCN)NC(=O)[C@H](Cc2c[nH]c3ccccc23)NC1=O [PKTD12, —R—F—Y—V—V—M—W—K—Q—p—P—S—G—L—S—V—K—V—V—N—] (HELM PEPTIDE1{R.F.Y.V.V.M.W.K.Q.[dP].P.S.G.L.S.V.K.V.V.N}$PEPTIDE1,PEPTIDE1,1:R1-20:R2$$$V2.0)	–	5.78%	3.11%	7.15%	3.26%	19.16%	6.80%	–	90.87%	89.42%	73.78%	dose-dependent viability decrease
CSCC[C@@H]1NC(=O)[C@@H](C(C)C)NC(=O)[C@H](C(C)C)NC(=O)[C@H](Cc2ccc(O)cc2)NC(=O)[C@H](Cc2ccccc2)NC(=O)[C@H](CCCNC(=N)N)NC(=O)[C@H](CO)NC(=O)CNC(=O)[C@H](CC(N)=O)NC(=O)[C@H](C(C)C)NC(=O)[C@H](C(C)C)NC(=O)[C@H](CCCCN)NC(=O)[C@H](C(C)C)NC(=O)[C@H](CO)NC(=O)[C@H](CC(C)C)NC(=O)CNC(=O)[C@@H]2CCCN2C(=O)[C@H]2CCCN2C(=O)[C@H](CCCCN)NC(=O)[C@H](Cc2c[nH]c3ccccc23)NC1=O [PKTD18, —S—R—F—Y—V—V—M—W—K—p—P—G—L—S—V—K—V—V—N—G—] (HELM PEPTIDE1{S.R.F.Y.V.[dV].M.W.K.[dP].P.G.L.S.V.K.V.V.N.G}$PEPTIDE1,PEPTIDE1,1:R1-20:R2$$$V2.0)	–	–	–	–	–	–	–	–	82.45%	75.12%	67.48%	–
—S—R—F—Y—V—V—M—W—K—Q—p—P—S—G—L—S—V—K—V—V—N—S— [PKTD11]	efficient in inducing cell death	–	–	–	–	–	–	–	–	–	–	dose-dependent viability decrease
—S—R—F—Y—V—V—M—W—K—p—P—S—R—F—Y—V—V—M—W—K— (SRFYVVMWKPPSRFYVVMWK; HELM PEPTIDE1{S.R.F.Y.V.V.M.W.K.[dP].P.S.R.F.Y.V.V.M.W.K}$PEPTIDE1,PEPTIDE1,1:R1-20:R2$$$V2.0; SMILES CSCC[C@@H]1NC(=O)[C@H](C(C)C)NC(=O)[C@H](C(C)C)NC(=O)[C@H](Cc2ccc(O)cc2)NC(=O)[C@H](Cc2ccccc2)NC(=O)[C@H](CCCNC(=N)N)NC(=O)[C@H](CO)NC(=O)[C@@H]2CCCN2C(=O)[C@H]2CCCN2C(=O)[C@H](CCCCN)NC(=O)[C@H](Cc2c[nH]c3ccccc23)NC(=O)[C@H](CCSC)NC(=O)[C@H](C(C)C)NC(=O)[C@H](C(C)C)NC(=O)[C@H](Cc2ccc(O)cc2)NC(=O)[C@H](Cc2ccccc2)NC(=O)[C@H](CCCNC(=N)N)NC(=O)[C@H](CO)NC(=O)[C@H](CCCCN)NC(=O)[C@H](Cc2c[nH]c3ccccc23)NC1=O; listed as Homo sapiens) [PKTD16]	–	–	–	–	–	–	–	–	–	–	–	dose-dependent viability decrease
